Data as given in US10676479B2, “Imidazolepyridine compounds and uses thereof” (Novartis AG, priority 2016, dated 2020).
Read-outs that look alike come from different tables or passages of the source.

Tests used:
EED (1-441)-His protein = EED (1-441)-His protein (Homo sapiens (Human), UniProt O75530); experiment: EED-H3K27Me3 peptide competition binding assay by AlphaScreen; details: EED Alphascreen binding Qualified assay
[1] = target: wild type PRC2 (wtPRC2) complex (Homo sapiens (Human), UniProt O75530); experiment: EED LC-MS assay; type: biochemical
Chain of wild type PRC2 (wtPRC2) complex (O75530 whole entry): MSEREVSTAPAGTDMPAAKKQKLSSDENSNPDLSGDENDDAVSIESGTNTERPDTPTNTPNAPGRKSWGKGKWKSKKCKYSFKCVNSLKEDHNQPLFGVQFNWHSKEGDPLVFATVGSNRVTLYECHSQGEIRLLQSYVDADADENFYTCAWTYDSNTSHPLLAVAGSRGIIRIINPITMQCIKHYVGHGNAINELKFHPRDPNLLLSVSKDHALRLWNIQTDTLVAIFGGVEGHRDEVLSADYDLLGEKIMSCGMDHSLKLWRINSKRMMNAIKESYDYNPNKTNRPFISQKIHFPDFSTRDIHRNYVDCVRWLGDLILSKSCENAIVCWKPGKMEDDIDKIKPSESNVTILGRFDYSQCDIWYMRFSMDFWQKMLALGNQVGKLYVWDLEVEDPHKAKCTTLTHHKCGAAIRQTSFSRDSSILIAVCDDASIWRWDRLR
Chain of wild type PRC2 (wtPRC2) complex (Q15910 whole entry partner): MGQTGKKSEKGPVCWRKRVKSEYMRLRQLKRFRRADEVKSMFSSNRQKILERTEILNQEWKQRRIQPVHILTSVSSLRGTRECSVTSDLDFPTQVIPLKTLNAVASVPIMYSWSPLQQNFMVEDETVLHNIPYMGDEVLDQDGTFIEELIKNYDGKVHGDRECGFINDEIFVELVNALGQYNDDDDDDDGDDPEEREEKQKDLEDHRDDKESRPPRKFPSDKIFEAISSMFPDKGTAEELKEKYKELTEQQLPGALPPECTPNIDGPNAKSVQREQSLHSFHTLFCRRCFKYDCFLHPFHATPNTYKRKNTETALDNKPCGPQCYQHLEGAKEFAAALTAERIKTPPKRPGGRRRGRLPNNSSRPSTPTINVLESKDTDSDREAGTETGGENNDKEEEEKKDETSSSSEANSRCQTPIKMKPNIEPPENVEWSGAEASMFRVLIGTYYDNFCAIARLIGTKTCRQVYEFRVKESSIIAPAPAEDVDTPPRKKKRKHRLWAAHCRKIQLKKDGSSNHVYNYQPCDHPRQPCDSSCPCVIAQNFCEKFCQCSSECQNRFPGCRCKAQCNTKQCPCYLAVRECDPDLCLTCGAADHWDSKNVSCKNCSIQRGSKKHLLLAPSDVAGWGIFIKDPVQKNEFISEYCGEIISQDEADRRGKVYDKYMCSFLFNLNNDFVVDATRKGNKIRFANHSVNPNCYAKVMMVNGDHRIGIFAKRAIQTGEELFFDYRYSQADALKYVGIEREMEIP
Chain of wild type PRC2 (wtPRC2) complex (Q15022 whole entry partner): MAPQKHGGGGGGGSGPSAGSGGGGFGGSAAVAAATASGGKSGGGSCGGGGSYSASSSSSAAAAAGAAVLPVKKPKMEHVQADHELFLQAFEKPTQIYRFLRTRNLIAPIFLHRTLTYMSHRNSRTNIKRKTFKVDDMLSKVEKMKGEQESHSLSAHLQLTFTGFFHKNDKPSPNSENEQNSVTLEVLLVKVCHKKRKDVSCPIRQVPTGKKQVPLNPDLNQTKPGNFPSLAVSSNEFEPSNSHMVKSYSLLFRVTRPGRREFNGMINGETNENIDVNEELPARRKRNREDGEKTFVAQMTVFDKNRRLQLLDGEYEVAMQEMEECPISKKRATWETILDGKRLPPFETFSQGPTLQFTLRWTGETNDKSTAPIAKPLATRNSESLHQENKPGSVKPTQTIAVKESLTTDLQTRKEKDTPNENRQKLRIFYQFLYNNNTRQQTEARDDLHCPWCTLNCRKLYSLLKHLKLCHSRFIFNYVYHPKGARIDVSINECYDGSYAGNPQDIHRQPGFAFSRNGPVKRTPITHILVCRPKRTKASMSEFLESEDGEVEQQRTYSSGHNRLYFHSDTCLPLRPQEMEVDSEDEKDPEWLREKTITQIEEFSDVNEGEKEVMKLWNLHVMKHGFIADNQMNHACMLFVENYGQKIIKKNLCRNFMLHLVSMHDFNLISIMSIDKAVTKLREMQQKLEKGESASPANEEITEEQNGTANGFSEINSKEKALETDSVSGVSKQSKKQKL
Procedure: EED LC-MS Assay Representative compounds of the present invention were serially and separately diluted 3-fold in DMSO to obtain a total of eight or twelve concentrations. […] A 6 μL solution of 3 μM of the peptide substrate H3K27Me0 (histone H3[21-44]-biotin) in reaction buffer was added to initiate each reaction. […] The data were then fit to a dose response equation using the program Helios to get the IC50 values of the test compound.

[2] = test system: H3K27 methylation in G401 cell; experiment: ELISA (H3K27 methylation) assay; type: cell-based; details: Homo sapiens, G-401, ELISA Qualified assay, 48 h, read-out: (c) IC50
Outline: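 G401 cells given 3-fold serial dilutions (eight or twelve points, top 20 μM) for 48 h. Lysate ELISA for H3K27 methylation normalized to H3 signal, % inhibition versus DMSO, IC50 from dose-response fit.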

[3] = EED LC-MS Qualified assay, read-out: (b) IC50

Chain of EED (1-441)-His protein (O75530 whole entry): as the sequence (O75530 whole entry) above

| SMILES | IC50 (EED (1-441)-His protein) [nM] | IC50 [1, 3] [nM] | IC50 [2] [nM] | IC50 [1] [nM] |
| --- | --- | --- | --- | --- |
| Cc1ncccc1-c1cnc(NCc2c(F)ccc3c2CCO3)n2cnc(C#N)c12 [Example 69, 5-(((5-fluoro-2,3-dihydrobenzofuran-4-yl)methyl)amino)-8-(2-methylpyridin-3-yl)imidazo[1,5-c]pyrimidine-1-carbonitrile] | 9 | 14.1 | 14.7 | – |
| CN(C)Cc1ccc(-c2cnc(NCc3cccc4occc34)n3cncc23)cc1 [Example 64, N-(benzofuran-4-ylmethyl)-8-(4-((dimethylamino)methyl)phenyl)imidazo[1,5-c]pyrimidin-5-amine] | 55.4 | 54.7 | 403 | – |
| c1cc(CNc2ncc(-c3ccc(N4CCNCC4)nc3)c3cncn23)c2ccoc2c1 [Example 66, N-(benzofuran-4-ylmethyl)-8-(6-(piperazin-1-yl)pyridin-3-yl)imidazo[1,5-c]pyrimidin-5-amine] | 72.1 | 49.3 | 444 | – |
| CCS(=O)(=O)c1ncn2c(NCc3c(F)ccc4c3CCO4)ncc(-c3cnc(C)nc3C)c12 [Example 104, 8-(2,4-dimethylpyrimidin-5-yl)-1-(ethylsulfonyl)-N-((5-fluoro-2,3-dihydrobenzofuran-4-yl)methyl)imidazo[1,5-c]pyrimidin-5-amine] | 3 | 10.5 | 2.1 | – |
| CN(C)Cc1ccc(-c2cnc(NCc3c(F)ccc4c3CCO4)n3cncc23)cc1 [Example 17, 8-(4-((dimethylamino)methyl)phenyl)-N-((5-fluoro-2,3-dihydrobenzofuran-4-yl)methyl)imidazo[1,5-c]pyrimidin-5-amine] | 12.6 | 25.7 | 32.1 | – |
| NS(=O)(=O)c1ccc(-c2cnc(NCc3c(F)ccc4c3CCO4)n3cncc23)cc1 [Example 23, 4-(5-(((5-fluoro-2,3-dihydrobenzofuran-4-yl)methyl)amino)imidazo[1,5-c]pyrimidin-8-yl)benzenesulfonamide] | 12.7 | 12.9 | 33.6 | – |
| Cc1ncccc1-c1cnc(NCc2c(F)ccc3c2CCO3)n2cnc(C#C[Si](C)(C)C)c12 [Example 116, N-((5-fluoro-2,3-dihydrobenzofuran-4-yl)methyl)-8-(2-methylpyridin-3-yl)-1-((trimethylsilyl)ethynyl)imidazo[1,5-c]pyrimidin-5-amine] | 8.3 | – | 90 | 8.7 |
| Cc1ncc(-c2cnc(NCc3c(F)ccc4c3CCO4)n3cncc23)cn1 [Example 50, N-((5-fluoro-2,3-dihydrobenzofuran-4-yl)methyl)-8-(2-methylpyrimidin-5-yl)imidazo[1,5-c]pyrimidin-5-amine] | 7.1 | 16.2 | 74.2 | – |
| COc1cccc(F)c1CNc1ncc(-c2cccnc2C)c2c(C#N)ncn12 [Example 90, 5-((2-fluoro-6-methoxybenzyl)amino)-8-(2-methylpyridin-3-yl)imidazo[1,5-c]pyrimidine-1-carbonitrile] | 139 | 56.8 | 337 | – |
| CCOC(=O)c1ncn2c(NCc3c(F)ccc4c3CCO4)ncc(-c3ccc(C)nc3C)c12 [Example 93, ethyl 8-(2,6-dimethylpyridin-3-yl)-5-(((5-fluoro-2,3-dihydrobenzofuran-4-yl)methyl)amino)imidazo[1,5-c]pyrimidine-1-carboxylate] | 4.9 | 5.7 | 5.1 | – |
| Cn1nccc1-c1cnc(NCc2c(F)ccc3c2CCO3)n2cncc12 [Example 33, N-((5-fluoro-2,3-dihydrobenzofuran-4-yl)methyl)-8-(1-methyl-1H-pyrazol-5-yl)imidazo[1,5-c]pyrimidin-5-amine] | 7.5 | 15.9 | 22.1 | – |
| Cc1ncc(-c2cnc(NCc3c(F)ccc4c3CCO4)n3cnc(-c4ncco4)c23)c(C)n1 [Example 11, 8-(2,4-dimethylpyrimidin-5-yl)-N-((5-fluoro-2,3-dihydrobenzofuran-4-yl)methyl)-1-(oxazol-2-yl)imidazo[1,5-c]pyrimidin-5-amine] | 12.6 | 17.1 | 6.9 | – |
| Cc1cc(S(C)(=O)=O)ccc1-c1cnc(NCc2c(F)ccc3c2CCO3)n2cncc12 [Example 42, N-((5-fluoro-2,3-dihydrobenzofuran-4-yl)methyl)-8-(2-methyl-4-(methylsulfonyl)phenyl)imidazo[1,5-c]pyrimidin-5-amine] | 10.4 | 8.5 | 79.5 | – |
